In patent US20240209028A1, “CNP COMPOUNDS” (priority 2022, published 2024):
“And” between values parts separate entries of the source, which are not always exact repeats. Equal values may be shown once. Starred links: 1 amine or outer side, 2 acyl side, 3 side chain; linkers in the order of their positions; H or OH if unused. Positions of bridges follow the written chain, without caps; N, C: chain ends. Residues, ends and D or L forms follow the SMILES beside them. *: point of attachment. C18 diacid = O=C(O)CCCCCCCCCCCCCCCCC(=O)*; γGlu = O=C(O)[C@H](CCC(=O)[*:2])N[*:1]; AEEA = NCCOCCOCC(=O)O

Tests used:
[1] = Thioflavin T (ThT) assay: lagtime and peptide recovery; assay type: physicochemical; details: assay terminated after 45 hours; for LagTime (h) at pH 6.5: ThT assay, pH 6.5, 37° C.; for LagTime (h) at pH 4.0: ThT, 37° C., shaking
Excerpt: The ThT assay was used to evaluate physical stability of the CNP compounds and their suitability for liquid formulation. Low physical stability of peptides may lead to amyloid fibril formation, which is observed as well-ordered, thread-like macromolecular structures in the sample eventually resulting in gel formation. This has traditionally been tested by visual inspection of the sample. However, that kind of measurement is very subjective and depending on the observer. Therefore, the application of a small molecule indicator probe is much more advantageous. Thioflavin T (ThT) is such a probe and has a distinct fluorescence signature when binding to fibrils [Naiki et al. (1989) Anal. Biochem. 177, 244-249; LeVine (1999) Methods. Enzymol. […], 274-284].
Procedure: Thioflavin T was added to the supernatant samples from Example 5 (pH 4.0 and 6.5) using an aqueous ThT stock solution to a final concentration of about 1 μM in the samples. Sample aliquots of 150 μL were placed in a 96 well microtiter plate (Packard OptiPlate™-96, white polystyrene). Usually, two to three replicas of each sample were applied to the plate. The plate was sealed and placed in a fluorescence plate reader (Fluoroskan Ascent FL) and incubated at 37° C. with orbital shaking (960 rpm; 1 mm amplitude). Fluorescence measurements were performed every 20 minutes using excitation through a 444 nm filter and measurement of emission through a 485 nm filter. Between each measurement, the plate was shaken and heated as described above and the assay was terminated after 45 hours. Fluorescence measurements for each microtiter plate well were plotted against time and the lag-time (time until an increase in ThT fluorescence was observed) was estimated.
To assess loss of dissolved peptide following 45h incubation, peptide recovery was measured as the ratio between total peak area after incubation vs. before incubation using the RP-UPLC method described below.
Measurement of LagTime and Peptide recovery % using RP-UPLC: RP-UPLC was conducted using an Acquity UPLC BEH C18 1.7 μm (2.1×30 mm) Waters column (Eluent A: 0.1% v/v % TFA in water; Eluent B: 0.1% v/v TFA in acetonitrile/water 4:1) with gradient elution (0 min: 95% A; 2 min: 20% A; 2.3 min: 20% A; 2.4 min: 95% A; 9 min: 95% A) in a flow rate of 0.9 mL/min and a column temperature of 30° C. UV-detection at 215 nm was used to assess the total peptide area.
Samples at pH 4.0 were prepared as described in Example 5 and subjected to the ThT assay as described above.
Samples at pH 6.5 were prepared as described in Example 5 and subjected to the ThT assay as described above.

[2] = High-Molecular-Weight-Protein (HMWP) formation by SEC-UPLC; assay type: physicochemical; details: increase over two weeks at 37° C.
Experimental: In order to assess the propensity of CNP compounds to form covalent dimers or oligomers when formulated the High-Molecular-Weight-Protein content of CNP compound formulations at pH 4.0 and 6.5 were determined.
Procedure: The relative amount of covalent HMWP was assessed using SEC-UPLC. SEC-UPLC was conducted using a Waters UPLC Protein BEH SEC column, 125A, 4.6×150 mm, 1.7 μm, with isocratic elution (0.3 M NaCl, 10 mM NaH2PO4 and 5 mM H3PO4, 50% (v/v) isopropanol, pH 2.4) with a flow rate of 0.3 mL/min, a column temperature at 50° C. with UV-detection at 215 nm. The total area of peaks eluting prior to the monomeric main peak was termed HMWP and given on a percentage scale relative to the total peptide peak area.
(§1) Results: HMWP Formation Following 2-Weeks Quiescent Incubation at 37° C.: Samples at pH 4.0 were prepared as described in Example 5 and the amount of HMWP was determined as described above. Samples were incubated for two weeks at 37° C. and the amount of HMWP was determined again. The increase in HMWP over two weeks incubation at 37° C. are reported in Table 10 (in case the incubation period deviated from two weeks the increase in HMWP was normalized to two weeks assuming a constant formation rate).
as §1, with “Samples” for “Results: HMWP Formation Following 2-Weeks Quiescent Incubation at 37° C.: Samples”, “6.5” for “4.0”, “11” for “10”

## CC[C@H](C)[C@@H]1NC(=O)[C@H](CCCNC(=N)N)NC(=O)[C@H](CC(=O)O)NC(=O)[C@H](CC(C)C)NC(=O)[C@@H]2CCCN2C(=O)[C@H](CC(C)C)NC(=O)CNC(=O)[C@H](Cc2ccccc2)NC(=O)[C@@H](NC(=O)CNC(=O)[C@H](CCC(N)=O)NC(=O)[C@H](CO)NC(=O)[C@H](CC(C)C)NC(=O)CNC(=O)[C@H](CCCCN)NC(=O)[C@H](CCCCN)NC(=O)[C@H](CCC(N)=O)NC(=O)[C@H](C)NC(=O)CNC(=O)[C@H](CCCCN)NC(=O)[C@H](Cc2ccc(O)cc2)NC(=O)[C@H](CCCCN)NC(=O)[C@H](Cc2c[nH]cn2)NC(=O)[C@H](C)NC(=O)[C@H](CCC(N)=O)NC(=O)[C@@H]2CCCN2C(=O)[C@H](Cc2c[nH]cn2)NC(=O)[C@H](CCC(=O)O)NC(=O)[C@H](CCC(N)=O)NC(=O)COCCOCCNC(=O)COCCOCCNC(=O)CC[C@H](NC(=O)CC[C@H](NC(=O)CC[C@H](NC(=O)CCCCCCCCCCCCCCCCC(=O)O)C(=O)O)C(=O)O)C(=O)O)CSSC[C@@H](C(=O)O)NC(=O)CNC(=O)[C@H](CC(C)C)NC(=O)CNC(=O)[C@H](CO)NC(=O)[C@H](CC(C)C)NC(=O)[C@H](CO)NC(=O)CNC1=O [compound 1382] ({C18 diacid-γGlu-γGlu-γGlu-AEEA-AEEA}-QEHPQAHKYKGAQKKGLSQGCFGLPLDRIGSLSGLGC-OH; disulfide 21-37)
[1]
  LagTime (h) at pH 6.5: 45 h
[2]
  2-Week HMWP formation at pH 6.5 (%), % relative to total peak area: 0%

## CC[C@H](C)[C@@H]1NC(=O)[C@H](CCCNC(=N)N)NC(=O)[C@H](CC(=O)O)NC(=O)[C@H](CC(C)C)NC(=O)[C@@H]2CCCN2C(=O)[C@H](CC(C)C)NC(=O)CNC(=O)[C@H](Cc2ccccc2)NC(=O)[C@@H](NC(=O)CNC(=O)[C@H](CO)NC(=O)[C@H](CO)NC(=O)[C@H](CC(C)C)NC(=O)CNC(=O)[C@H](CCCCN)NC(=O)[C@H](CCCCN)NC(=O)[C@H](CCC(N)=O)NC(=O)[C@H](C)NC(=O)CNC(=O)[C@H](CCCCN)NC(=O)[C@H](Cc2ccc(O)cc2)NC(=O)[C@H](CCCCN)NC(=O)[C@H](CCCNC(=N)N)NC(=O)[C@H](C)NC(=O)[C@H](CCC(N)=O)NC(=O)[C@@H]2CCCN2C(=O)[C@H](Cc2c[nH]cn2)NC(=O)[C@H](CCC(=O)O)NC(=O)[C@H](CCC(N)=O)NC(=O)COCCOCCNC(=O)COCCOCCNC(=O)CC[C@H](NC(=O)CC[C@H](NC(=O)CC[C@H](NC(=O)CC[C@H](NC(=O)CCCCCCCCCCCCCCCCC(=O)O)C(=O)O)C(=O)O)C(=O)O)C(=O)O)CSSC[C@@H](C(=O)O)NC(=O)CNC(=O)[C@H](CC(C)C)NC(=O)CNC(=O)[C@H](CO)NC(=O)[C@H](CC(C)C)NC(=O)[C@H](CO)NC(=O)CNC1=O [compound 1473] ({C18 diacid-γGlu-γGlu-γGlu-γGlu-AEEA-AEEA}-QEHPQARKYKGAQKKGLSSGCFGLPLDRIGSLSGLGC-OH; disulfide 21-37; C-terminus assumed)
[1]
  LagTime (h) at pH 4.0: 45 h
[2]
  2-Week HMWP formation at pH 4.0 (%), % relative to total peak area: 0.9% and 1.26%

## CC[C@H](C)[C@@H]1NC(=O)[C@H](CCCNC(=N)N)NC(=O)[C@H](CC(=O)O)NC(=O)[C@H](CC(C)C)NC(=O)[C@@H]2CCCN2C(=O)[C@H](CC(C)C)NC(=O)CNC(=O)[C@H](Cc2ccccc2)NC(=O)[C@@H](NC(=O)CNC(=O)[C@H](CCC(N)=O)NC(=O)[C@H](CO)NC(=O)CNC(=O)CNC(=O)[C@H](CCCCN)NC(=O)[C@H](CCCCN)NC(=O)[C@H](CCC(N)=O)NC(=O)[C@H](C)NC(=O)CNC(=O)[C@H](Cc2c[nH]cn2)NC(=O)[C@H](Cc2ccc(O)cc2)NC(=O)COCCOCCNC(=O)COCCOCCNC(=O)COCCOCCNC(=O)COCCOCCNC(=O)CC[C@H](NC(=O)CC[C@H](NC(=O)CCCCCCCCCCCCCCCCC(=O)O)C(=O)O)C(=O)O)CSSC[C@@H](C(=O)O)NC(=O)CNC(=O)[C@H](CC(C)C)NC(=O)CNC(=O)[C@H](CO)NC(=O)[C@H](CC(C)C)NC(=O)[C@H](CO)NC(=O)CNC1=O [compound 1434] ({C18 diacid-γGlu-γGlu-AEEA-AEEA-AEEA-AEEA}-YHGAQKKGGSQGCFGLPLDRIGSLSGLGC-OH; disulfide 13-29)
[1]
  LagTime (h) at pH 6.5: 45 h
[2]
  2-Week HMWP formation at pH 6.5 (%), % relative to total peak area: 3.2%

## CC[C@H](C)[C@@H]1NC(=O)[C@H](CCCNC(=N)N)NC(=O)[C@H](CC(=O)O)NC(=O)[C@H](CC(C)C)NC(=O)[C@@H]2CCCN2C(=O)[C@H](CC(C)C)NC(=O)CNC(=O)[C@H](Cc2ccccc2)NC(=O)[C@@H](NC(=O)CNC(=O)[C@H](CO)NC(=O)[C@H](CO)NC(=O)[C@@H](NC(=O)CNC(=O)[C@H](CCCCN)NC(=O)[C@H](CCCCN)NC(=O)[C@H](CCC(N)=O)NC(=O)[C@H](C)NC(=O)CNC(=O)[C@H](Cc2c[nH]cn2)NC(=O)[C@H](Cc2ccc(O)cc2)NC(=O)[C@H](CCCCN)NC(=O)[C@H](CCCNC(=N)N)NC(=O)[C@H](C)NC(=O)COCCOCCNC(=O)COCCOCCNC(=O)CC[C@H](NC(=O)CC[C@H](NC(=O)CC[C@H](NC(=O)CCCCCCCCCCCCCCCCC(=O)O)C(=O)O)C(=O)O)C(=O)O)C(C)C)CSSC[C@@H](C(=O)O)NC(=O)CNC(=O)[C@H](CC(C)C)NC(=O)CNC(=O)[C@H](CO)NC(=O)[C@H](CC(C)C)NC(=O)[C@H](CO)NC(=O)CNC1=O [compound 1422] ({C18 diacid-γGlu-γGlu-γGlu-AEEA-AEEA}-ARKYHGAQKKGVSSGCFGLPLDRIGSLSGLGC-OH; disulfide 16-32)
[1]
  LagTime (h) at pH 4.0: 45 h
[2]
  2-Week HMWP formation at pH 4.0 (%), % relative to total peak area: 36%

## CC[C@H](C)[C@@H]1NC(=O)[C@H](CCCNC(=N)N)NC(=O)[C@H](CCC(=O)O)NC(=O)[C@H](CC(C)C)NC(=O)[C@@H]2CCCN2C(=O)[C@H](CC(C)C)NC(=O)CNC(=O)[C@H](Cc2ccccc2)NC(=O)[C@@H](NC(=O)CNC(=O)[C@H](CCC(N)=O)NC(=O)[C@H](CO)NC(=O)[C@H](CC(C)C)NC(=O)CNC(=O)[C@H](CCCCN)NC(=O)[C@H](CCCCN)NC(=O)[C@H](CCC(N)=O)NC(=O)[C@H](C)NC(=O)CNC(=O)[C@H](CCCCN)NC(=O)[C@H](Cc2ccc(O)cc2)NC(=O)[C@H](CCCCN)NC(=O)[C@H](CCCNC(=N)N)NC(=O)[C@H](C)NC(=O)COCCOCCNC(=O)COCCOCCNC(=O)COCCOCCNC(=O)COCCOCCNC(=O)CC[C@H](NC(=O)CC[C@H](NC(=O)CC[C@H](NC(=O)CC[C@H](NC(=O)CC[C@H](NC(=O)CCCCCCCCCCCCCCCCC(=O)O)C(=O)O)C(=O)O)C(=O)O)C(=O)O)C(=O)O)CSSC[C@@H](C(=O)O)NC(=O)CNC(=O)[C@H](CC(C)C)NC(=O)CNC(=O)[C@H](CO)NC(=O)[C@H](CC(C)C)NC(=O)[C@H](CO)NC(=O)CNC1=O [compound 1477] ({C18 diacid-γGlu-γGlu-γGlu-γGlu-γGlu-AEEA-AEEA-AEEA-AEEA}-ARKYKGAQKKGLSQGCFGLPLERIGSLSGLGC-OH; disulfide 16-32)
[1]
  LagTime (h) at pH 6.5: 23 h
[2]
  2-Week HMWP formation at pH 6.5 (%), % relative to total peak area: 1.83%
